{"source": "patent US8563258B2", "about": "“Allergy test based on flow cytometric analysis” (Buhlmann Laboratories AG, priority 2007, dated 2013)", "key": {"basophils [1]": {"test_system": "basophils", "text": "Peripheral blood leukocytes are isolated from patients' whole blood samples and primed with Stimulation Buffer containing interleukin 3 (IL-3). […] During this activation intracellular compounds containing the transmembrane protein CD63 are fused to the cellular membrane and therefore exposed to the extracellular matrix.\nA highly specific monoclonal antibody (mAb) recognizing the high affinity IgE binding receptor (FcεRI) is used as a positive control, leading to the activation of the basophils by mimicking the bridging event.\nAfter stopping the reaction the Staining Reagent is added containing a mixture of monoclonal antibodies to human CD63 labeled with phycoerythrin (anti-CD63-PE) and to human IgE labeled with fluorescein isothiocyanate (anti-IgE-FITC). The remaining erythrocytes are removed by a lysing reaction and after blocking the reaction the cells are analyzed by flow cytometry.\nMix the anti-coagulated blood sample by inverting the venipuncture tube several times. Centrifuge the venipuncture tube for 5 minutes at 200×g. After the centrifugation step, two phases can be observed from top to the bottom of the tube: • i) plasma fraction containing the leukocytes • ii) erythrocyte fraction • Alternative procedure for cell separation: • Mix the anti-coagulated blood sample by inverting the venipuncture tube several times. • Let the samples sediment (erythrocytes) at room temperature for one hour. Collect the upper phase (plasma fraction containing the leukocytes) and continue with step 2. • If the erythrocytes sedimentation is not complete after one hour of incubation, the centrifugation step above is recommended. • 2. Collect the plasma fraction with the leukocytes on the top of the erythrocytes with a disposable plastic syringe or plastic pipette and transfer it into a fresh and pyrogen-free 5 ml polypropylene or polystyrene tube. • NOTE: Because of the low amount of basophils in the leukocyte fraction it is important to collect the entire plasma fraction. […] Centrifuge for 10 minutes at 500×g. Completely remove the plasma fraction on the top of the cell pellet with a pipette. • 4. Add 100 μl of Stimulation Buffer per ml of blood used at the beginning (i.e. for 5 ml blood sample used, the pellet has to be solved with 500 μl of Stimulation Buffer). Resuspend the leukocytes pellet carefully. • 5a. For each patient, label pyrogen-free polystyrene tubes suited for Flow Cytometry measurements (e.g., PB=patient background=negative control, PC=stimulation control with anti-FcεRI Ab, A1-1 for antigen 1 with dilution 1, A1-2 for allergen 1 with dilution 2, etc.) or use tissue culture grade microtiter plates. • 5b. Pipet 50 μl of Stimulation Buffer (background 0 negative control) into the PB tube of each patient. • 5c. Pipet 50 μl of Stimulation Control into the PC tube of each patient. • 5d. Pipet 50 μl of Allergen (=test substance) into the corresponding patient tubes. • 6. Pipet 50 μl of each patient's cell suspension into the corresponding tubes. • 7. Vortex gently, cover the tubes and incubate for 40±5 minutes at 37° C. in a water bath. • 8. Add 50 μl of cold Blocking Buffer to each tube. • 9. Add 20 μl of cold Staining Reagent to each tube. Vortex gently. • 10. Incubate for 30±5 minutes at 2-8° C. • 11. Vortex gently the sedimented cells, add 3.5 ml of pre-warmed (18-28° C.) Lysing Reagent to each tube and incubate for 5±1 minutes at 18-28° C. • 12. Stop the reaction with 1 ml of Blocking Buffer. • 13. Centrifuge for 5 minutes at 1000-1200×g. • 14. Decant or aspirate the supernatant and resuspend the cell pellet with 500 μl of Blocking Buffer. Vortex gently. • 15. Proceed to the analysis by Flow Cytometry within 2 hours.\nFlow cytometric analysis can be performed on any flow cytometer containing a 488 nm argon laser (blue-green excitation light) and the corresponding software."}, "basophilic cells": {"test_system": "basophilic cells", "conditions": "for MFI-CCR3 shift (cytotoxic concentration): human", "description": "In Protocol 1 anti-IgE-FITC is used as the basophil selection marker, whereas in Protocol 2 anti-CCR3-PE is used."}, "basophils [2]": {"test_system": "basophils", "experiment": "Alternative use of FcεRI instead of IgE as basophil selection/activation marker (Example 7)", "format": "cell-based, human", "conditions": "for MFI Activation Index (anti-FcεRI-AF647 and anti-IgE-AF647): Amoxicillin allergic patient"}, "blood basophils": {"test_system": "blood basophils", "conditions": "21 normal blood donors", "experimental": "Therefore, we established two protocols, one with diluted whole blood, wherein the EDTA blood sample is diluted 1 in 4 with cellular incubation buffer (the Stimulation Buffer) and another with purified blood, wherein the basophils were transferred from its plasma matrix to a plasma-free matrix such as the cellular incubation buffer by centrifuging and washing the blood cells."}}, "note": "Where two headings read alike, the source gives them in different places."}
{"smiles": "CC(C)Cc1ccc(C(C)C(=O)O)cc1", "note": "(stereo not shown) [Ibuprofen]", "values": [{"measurement": "combined MFI-IgE/CD63 Activation Index", "setting": "basophils [1]; Patient 8", "result": "positive results"}, {"measurement": "CD63 expression", "setting": "basophils [1]; Patient 9", "result": "clearcut reaction"}, {"measurement": "combined MFI-IgE/CD63 Activation Index", "setting": "basophils [1]; Patient 9", "result": "clearcut reaction"}]}
{"smiles": "CC(=O)Oc1ccccc1C(=O)O", "note": "[Aspirin]", "values": [{"measurement": "combined MFI-IgE/CD63 Activation Index", "setting": "basophils [1]; Patient 8", "result": "positive results"}, {"measurement": "CD63 expression", "setting": "basophils [1]; Patient 9", "result": "clearcut reaction"}, {"measurement": "combined MFI-IgE/CD63 Activation Index", "setting": "basophils [1]; Patient 9", "result": "clearcut reaction"}, {"measurement": "MFI-CCR3 shift (cytotoxic concentration)", "setting": "basophilic cells; 5 mg/ml", "result": "clearcut downregulation of MFI-CCR3"}]}
{"smiles": "O=C(O)Cc1ccccc1Nc1c(Cl)cccc1Cl", "note": "[Diclofenac]", "values": [{"measurement": "CD63 expression", "setting": "basophils [1]; Patient 9", "result": "clearcut reaction"}, {"measurement": "combined MFI-IgE/CD63 Activation Index", "setting": "basophils [1]; Patient 9", "result": "clearcut reaction"}]}
{"smiles": "CC1(C)S[C@@H]2[C@H](NC(=O)[C@H](N)c3ccc(O)cc3)C(=O)N2[C@H]1C(=O)O", "note": "[Amoxicillin]", "values": [{"measurement": "result of all methods tested (CD63 expression, combined Activation Index, spIgE, skin test)", "setting": "basophils [1]; Patient 4 (control subject)", "result": "negative result"}, {"measurement": "combined MFI-IgE/CD63 Activation Index", "setting": "basophils [1]; Patient 5", "result": "positive result"}, {"measurement": "CD63 expression", "setting": "basophils [1]; Patient 5, cutoff 5% plus SI≧2", "result": "negative"}, {"measurement": "CCR3 positive cells after stimulation", "setting": "basophilic cells; 2 mg/ml, CCR3 selection marker", "result": "can still be easily identified"}, {"measurement": "IgE positive basophilic cells after stimulation", "setting": "basophilic cells; 2 mg/ml, IgE selection marker", "result": "disappearing"}, {"measurement": "MFI Activation Index (anti-FcεRI-AF647 and anti-IgE-AF647)", "setting": "basophils [2]; 0.04 mg/ml (C3)", "result": "negative"}, {"measurement": "MFI Activation Index (anti-FcεRI-AF647 and anti-IgE-AF647)", "setting": "basophils [2]; 0.2 mg/ml (C2)", "result": "intermediate"}, {"measurement": "MFI Activation Index (anti-FcεRI-AF647 and anti-IgE-AF647)", "setting": "basophils [2]; 1 mg/ml (C1)", "result": "strong activation"}]}
{"smiles": "CSCC[C@H](NC=O)C(=O)N[C@@H](CC(C)C)C(=O)N[C@@H](Cc1ccccc1)C(=O)O", "note": "[fMLP, N-formyl-L-methionyl-L-leucyl-L-phenylalanine]", "values": [{"measurement": "stimulation yield as alternative positive control", "setting": "basophils [2]; compared with anti-FcεRI mAb", "result": "lower stimulation yields than anti-FcεRI mAb"}]}
{"smiles": "COc1ccc2cc([C@H](C)C(=O)O)ccc2c1", "note": "[Naproxen]", "values": [{"measurement": "MFI-CCR3 shift (cytotoxic concentration)", "setting": "basophilic cells; 1 mg/ml", "result": "clearcut downregulation of MFI-CCR3"}, {"measurement": "MFI-CCR3 shift (cytotoxic concentration)", "setting": "basophilic cells; 5 mg/ml", "result": "clearcut downregulation of MFI-CCR3"}, {"measurement": "unspecific stimulatory effects on basophils", "setting": "blood basophils; 1 mg/ml, washed blood cells", "result": "unspecific stimulatory effects"}, {"measurement": "cytotoxic effects on blood basophils", "setting": "blood basophils; 5 mg/ml, all blood preparation methods", "result": "cytotoxic effects"}]}
